Source: ChEMBL document CHEMBL4002647, “BMS-933043, a Selective α7 nAChR Partial Agonist for the Treatment of Cognitive Deficits Associated with Schizophrenia” (ACS Med Chem Lett, 2017)
Activity calls are given as the source filed them. The rule behind the calls is not given here.

Experiments:
[1] = Metabolic stability in monkey liver microsomes assessed as compound remaining at 3 uM after 10 mins by LC-MS/MS analysis; assay type: ADME, Macaca mulatta, microsome; settings: rhesus monkey, read-out: Stability
[2] = AUC in cynomolgus monkey at 1 mg/kg, iv administered as 5 mins infusion; assay type: ADME, organism-based, Macaca fascicularis; settings: in vivo
[3] = Volume of distribution at steady state in dog at 1 mg/kg, iv administered as 5 mins infusion; assay type: ADME, organism-based, Canis lupus familiaris; settings: in vivo, read-out: Vdss
[4] = Fraction unbound in mouse plasma at 10 uM after 4 hrs by equilibrium dialysis method; assay type: ADME, cell-free
[5] = AUC in mouse at 10 mg/kg, po; assay type: ADME, organism-based; settings: in vivo
Cytochrome P450 3A4 [6] = target: T1, Cytochrome P450 3A4 (Homo sapiens, UniProt P08684); assay: Inhibition of recombinant human CYP3A4 using fluorogenic substrate BZR preincubated for 30 mins and measured after 20 to 60 mins in presence of NADPH regenerating system by fluorescence assay; assay type: ADME
[7] = target: T2, Neuronal acetylcholine receptor subunit alpha-7 (Homo sapiens, UniProt P36544); assay: Agonist activity at human alpha7 nAChR expressed in HEK293 cells co-expressing human RIC3 assessed as induction of peak current amplitutde at 10 uM at holding potential of -90 mV by whole-cell voltage clamp electrophysiology method relative to acetylcholine; assay type: cell-based
Mus musculus [8] = assay: Cognitive enhancing effect in C57Bl/6 mouse assessed as time spent on exploring novel objects administered subcutaneously 30 mins prior to test and measured after 24 hrs by novel object recognition test; assay type: functional; settings: C57Bl/6, sc, read-out: MED
[9] = Volume of distribution at steady state in rat at 1 mg/kg, iv administered as 5 mins infusion; assay type: ADME, organism-based; settings: in vivo, read-out: Vdss
Cytochrome P450 3A4 [10] = target: T1, Cytochrome P450 3A4; assay: Inhibition of recombinant human CYP3A4 using fluorogenic substrate BFC preincubated for 30 mins and measured after 20 to 60 mins in presence of NADPH regenerating system by fluorescence assay; assay type: ADME
[11] = Cmax in dog at 5 mg/kg, po; assay type: ADME, organism-based, Canis lupus familiaris; parameters: dose 5 mg/kg, route oral; settings: in vivo
[12] = Oral bioavailability in dog at 5 mg/kg; assay type: ADME, organism-based, Canis lupus familiaris; settings: in vivo
[13] = target: Muscarinic acetylcholine receptor M1 (Homo sapiens) (UniProt P11229); assay: Activity at human muscarinic M1 receptor
[14] = Volume of distribution at steady state in mouse at 1 mg/kg, iv administered as 5 mins infusion; assay type: ADME, organism-based; settings: in vivo, read-out: Vdss
[15] = target: Muscarinic acetylcholine receptor M4 (Homo sapiens) (UniProt P08173); assay: Activity at human muscarinic M4 receptor
[16] = Half life in mouse at 1 mg/kg, iv administered as 5 mins infusion; assay type: ADME, organism-based; settings: in vivo
Cytochrome P450 2B6 = Cytochrome P450 2B6 (Homo sapiens, UniProt P20813); assay: Inhibition of recombinant human CYP2B6 using fluorogenic substrate preincubated for 30 mins and measured after 20 to 60 mins in presence of NADPH regenerating system by fluorescence assay; assay type: ADME
Cytochrome P450 2C8 = Cytochrome P450 2C8 (Homo sapiens, UniProt P10632); assay: Inhibition of recombinant human CYP2C8 using fluorogenic substrate preincubated for 30 mins and measured after 20 to 60 mins in presence of NADPH regenerating system by fluorescence assay; assay type: ADME
[17] = Drug level in C57Bl/6 mouse plasma at 0.1 mg/kg, sc after 30 mins; assay type: ADME, organism-based
[18] = Total plasma clearance in rat at 1 mg/kg, iv administered as 5 mins infusion; assay type: ADME, organism-based
[19] = target: Neuronal acetylcholine receptor; alpha3/beta4 (Rattus norvegicus, UniProt P04757+P12392); assay: Agonist activity at rat alpha3beta4 nAChR expressed in HEK293 cells assessed as increase in Ca2+ flux by Fluo-4 AM dye based FLIPR assay; assay type: cell-based
[20] = target: T2, Neuronal acetylcholine receptor subunit alpha-7; assay: Agonist activity at human alpha7 nAChR expressed in HEK293 cells co-expressing human RIC3 assessed as area under current curve at 10 uM at holding potential of -90 mV by whole-cell voltage clamp electrophysiology method relative to acetylcholine; assay type: cell-based
[21] = target: Muscarinic acetylcholine receptor M5 (Homo sapiens) (UniProt P08912); assay: Activity at human muscarinic M5 receptor
[22] = AUC in rat at 1 mg/kg, iv administered as 5 mins infusion; assay type: ADME, organism-based; settings: in vivo
[23] = Oral bioavailability in rat at 10 mg/kg; assay type: ADME, organism-based; settings: in vivo
[24] = Cmax in rat at 10 mg/kg, po; assay type: ADME, organism-based; parameters: dose 10 mg/kg, route oral; settings: in vivo
[25] = Total plasma clearance in mouse at 1 mg/kg, iv administered as 5 mins infusion; assay type: ADME, organism-based
Cytochrome P450 2D6 = Cytochrome P450 2D6 (Homo sapiens, UniProt P10635); assay: Inhibition of recombinant human CYP2D6 using fluorogenic substrate preincubated for 30 mins and measured after 20 to 60 mins in presence of NADPH regenerating system by fluorescence assay; assay type: ADME
[26] = Half life in rat at 1 mg/kg, iv administered as 5 mins infusion; assay type: ADME, organism-based; settings: in vivo
[27] = Fraction unbound in human plasma at 10 uM after 4 hrs by equilibrium dialysis method; assay type: ADME, cell-free
[28] = Fraction unbound in monkey plasma at 10 uM after 4 hrs by equilibrium dialysis method; assay type: ADME, cell-free, Macaca mulatta; settings: rhesus monkey
[29] = Metabolic stability in dog liver microsomes assessed as compound remaining at 3 uM after 10 mins by LC-MS/MS analysis; assay type: ADME, Canis lupus familiaris, microsome; settings: read-out: Stability
[30] = Fraction unbound in C57Bl/6 mouse plasma at 0.1 mg/kg, sc after 30 mins; assay type: ADME, organism-based
[31] = Metabolic stability in mouse liver microsomes assessed as compound remaining at 3 uM after 10 mins by LC-MS/MS analysis; assay type: ADME, microsome; settings: read-out: Stability
[32] = Fraction unbound in dog plasma at 10 uM after 4 hrs by equilibrium dialysis method; assay type: ADME, cell-free, Canis lupus familiaris
[33] = Fraction unbound in rat plasma at 10 uM after 4 hrs by equilibrium dialysis method; assay type: ADME, cell-free
[34] = Total plasma clearance in dog at 1 mg/kg, iv administered as 5 mins infusion; assay type: ADME, organism-based, Canis lupus familiaris
[35] = target: Neuronal acetylcholine receptor; alpha4/beta2 (Rattus norvegicus, UniProt P09483+P12390); assay: Agonist activity at rat alpha4beta2 nAChR expressed in HEK293 cells assessed as increase in Ca2+ flux by Fluo-4 AM dye based FLIPR assay; assay type: cell-based
[36] = target: T3, Neuronal acetylcholine receptor subunit alpha-7 (Rattus norvegicus, UniProt Q05941); assay: Agonist activity at rat alpha7 nAChR expressed in HEK293 cells assessed as increase in Ca2+ flux by Fluo-4 AM dye based FLIPR assay; assay type: cell-based
[37] = Half life in dog at 1 mg/kg, iv administered as 5 mins infusion; assay type: ADME, organism-based, Canis lupus familiaris; settings: in vivo
[38] = Cmax in cynomolgus monkey at 5 mg/kg, po; assay type: ADME, organism-based, Macaca fascicularis; parameters: dose 5 mg/kg, route oral; settings: in vivo
[39] = target: T3, Neuronal acetylcholine receptor subunit alpha-7; assay: Agonist activity at rat alpha7 nAChR expressed in HEK293 cells co-expressing human RIC3 assessed as area under current curve at holding potential of -90 mV by whole-cell voltage clamp electrophysiology method; assay type: cell-based
[40] = Ratio of drug level in mouse brain to plasma at 1 mg/kg, iv administered as 5 mins infusion after 30 mins; assay type: ADME, organism-based; settings: brain and plasma, read-out: BPR
[41] = target: T2, Neuronal acetylcholine receptor subunit alpha-7; assay: Agonist activity at human alpha7 nAChR expressed in HEK293 cells co-expressing human RIC3 assessed as area under current curve at holding potential of -90 mV by whole-cell voltage clamp electrophysiology method; assay type: cell-based
[42] = Volume of distribution at steady state in cynomolgus monkey at 1 mg/kg, iv administered as 5 mins infusion; assay type: ADME, organism-based, Macaca fascicularis; settings: in vivo, read-out: Vdss
[43] = AUC in dog at 5 mg/kg, po; assay type: ADME, organism-based, Canis lupus familiaris; settings: in vivo
[44] = target: Nicotinic acetylcholine receptor alpha-1/beta-1/delta/epsilon (Rattus norvegicus, UniProt P09660+P25108+P25109+P25110); assay: Agonist activity at rat alpha1beta1delta1epsilon nAChR expressed in HEK293 cells assessed as increase in Ca2+ flux by Fluo-4 AM dye based FLIPR assay; assay type: cell-based
[45] = Cmax in mouse at 10 mg/kg, po; assay type: ADME, organism-based; parameters: dose 10 mg/kg, route oral; settings: in vivo
[46] = target: Muscarinic acetylcholine receptor M3 (Homo sapiens) (UniProt P20309); assay: Activity at human muscarinic M3 receptor
[47] = AUC in dog at 1 mg/kg, iv administered as 5 mins infusion; assay type: ADME, organism-based, Canis lupus familiaris; settings: in vivo
[48] = Metabolic stability in human liver microsomes assessed as compound remaining at 3 uM after 10 mins by LC-MS/MS analysis; assay type: ADME, microsome; settings: read-out: Stability
[49] = Oral bioavailability in cynomolgus monkey at 5 mg/kg; assay type: ADME, organism-based, Macaca fascicularis; settings: in vivo
[50] = Metabolic stability in rat liver microsomes assessed as compound remaining at 3 uM after 10 mins by LC-MS/MS analysis; assay type: ADME, microsome; settings: read-out: Stability
Mus musculus [51] = assay: Cognitive enhancing effect in C57Bl/6 mouse assessed as time spent on exploring novel objects at 0.1 to 10 mg/kg, sc administered 30 mins prior to test and measured after 24 hrs by novel object recognition test; assay type: functional, organism-based
[52] = Total plasma clearance in cynomolgus monkey at 1 mg/kg, iv administered as 5 mins infusion; assay type: ADME, organism-based, Macaca fascicularis
[53] = AUC in rat at 10 mg/kg, po; assay type: ADME, organism-based; settings: in vivo
[54] = AUC in mouse at 1 mg/kg, iv administered as 5 mins infusion; assay type: ADME, organism-based; settings: in vivo
[55] = Half life in cynomolgus monkey at 1 mg/kg, iv administered as 5 mins infusion; assay type: ADME, organism-based, Macaca fascicularis; settings: in vivo
[56] = Oral bioavailability in mouse at 10 mg/kg; assay type: ADME, organism-based; settings: in vivo
[57] = AUC in cynomolgus monkey at 5 mg/kg, po; assay type: ADME, organism-based, Macaca fascicularis; settings: in vivo

T2 sequence (P36544 whole entry): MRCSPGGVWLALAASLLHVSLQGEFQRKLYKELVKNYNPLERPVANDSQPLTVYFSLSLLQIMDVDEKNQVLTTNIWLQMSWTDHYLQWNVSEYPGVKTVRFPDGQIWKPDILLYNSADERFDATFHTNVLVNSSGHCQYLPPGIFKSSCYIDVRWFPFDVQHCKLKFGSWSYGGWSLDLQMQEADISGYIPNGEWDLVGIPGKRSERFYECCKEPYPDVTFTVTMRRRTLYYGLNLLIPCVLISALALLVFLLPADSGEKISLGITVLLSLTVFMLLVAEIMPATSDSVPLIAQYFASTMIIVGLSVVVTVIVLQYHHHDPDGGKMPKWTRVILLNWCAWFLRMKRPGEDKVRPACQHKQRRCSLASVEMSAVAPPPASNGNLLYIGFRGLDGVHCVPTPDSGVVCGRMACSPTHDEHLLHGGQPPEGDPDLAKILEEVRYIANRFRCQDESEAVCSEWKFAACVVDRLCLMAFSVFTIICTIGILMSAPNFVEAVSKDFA
T1 sequence (P08684 whole entry): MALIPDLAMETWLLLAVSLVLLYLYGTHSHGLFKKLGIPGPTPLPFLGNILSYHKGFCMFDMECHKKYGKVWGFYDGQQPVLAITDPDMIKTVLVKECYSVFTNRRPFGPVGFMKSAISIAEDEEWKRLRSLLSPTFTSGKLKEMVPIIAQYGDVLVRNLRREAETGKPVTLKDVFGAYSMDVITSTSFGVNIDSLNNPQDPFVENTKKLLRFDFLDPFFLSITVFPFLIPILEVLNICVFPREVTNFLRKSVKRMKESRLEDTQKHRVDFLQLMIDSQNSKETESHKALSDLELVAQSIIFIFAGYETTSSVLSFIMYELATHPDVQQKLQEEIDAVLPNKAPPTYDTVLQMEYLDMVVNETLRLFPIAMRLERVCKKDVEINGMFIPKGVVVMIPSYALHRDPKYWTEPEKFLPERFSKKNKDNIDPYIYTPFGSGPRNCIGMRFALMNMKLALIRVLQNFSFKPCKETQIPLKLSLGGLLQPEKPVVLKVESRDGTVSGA
T3 sequence (Q05941 whole entry, the tested form may be a part): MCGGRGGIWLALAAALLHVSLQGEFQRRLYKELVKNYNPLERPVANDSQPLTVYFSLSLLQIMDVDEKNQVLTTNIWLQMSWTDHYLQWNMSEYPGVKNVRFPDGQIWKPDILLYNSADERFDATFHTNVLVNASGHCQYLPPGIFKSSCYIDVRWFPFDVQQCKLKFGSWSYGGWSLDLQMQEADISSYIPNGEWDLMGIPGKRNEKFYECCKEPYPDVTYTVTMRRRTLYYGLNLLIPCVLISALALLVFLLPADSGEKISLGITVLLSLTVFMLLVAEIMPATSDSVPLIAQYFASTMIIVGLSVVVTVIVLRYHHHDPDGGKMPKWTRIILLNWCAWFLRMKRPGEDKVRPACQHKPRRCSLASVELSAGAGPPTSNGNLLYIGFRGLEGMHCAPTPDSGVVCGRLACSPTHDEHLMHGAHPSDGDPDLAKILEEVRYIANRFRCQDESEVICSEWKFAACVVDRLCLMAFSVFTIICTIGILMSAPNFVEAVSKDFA
Cytochrome P450 2B6, sequence (P20813 whole entry): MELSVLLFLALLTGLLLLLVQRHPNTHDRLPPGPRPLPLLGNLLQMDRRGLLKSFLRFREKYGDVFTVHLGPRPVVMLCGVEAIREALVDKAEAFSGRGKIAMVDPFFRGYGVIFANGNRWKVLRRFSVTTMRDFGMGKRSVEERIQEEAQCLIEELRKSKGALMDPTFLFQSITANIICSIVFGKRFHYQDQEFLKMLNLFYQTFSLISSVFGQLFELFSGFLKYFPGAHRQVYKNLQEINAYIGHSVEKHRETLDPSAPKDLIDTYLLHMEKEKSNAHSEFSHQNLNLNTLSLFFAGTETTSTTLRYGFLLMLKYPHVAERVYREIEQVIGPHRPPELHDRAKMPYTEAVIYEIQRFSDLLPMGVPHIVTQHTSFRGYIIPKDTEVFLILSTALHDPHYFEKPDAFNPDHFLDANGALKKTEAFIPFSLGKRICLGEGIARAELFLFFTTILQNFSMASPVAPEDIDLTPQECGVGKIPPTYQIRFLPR
Muscarinic acetylcholine receptor M4 (Homo sapiens), sequence (P08173 whole entry, the tested form may be a part): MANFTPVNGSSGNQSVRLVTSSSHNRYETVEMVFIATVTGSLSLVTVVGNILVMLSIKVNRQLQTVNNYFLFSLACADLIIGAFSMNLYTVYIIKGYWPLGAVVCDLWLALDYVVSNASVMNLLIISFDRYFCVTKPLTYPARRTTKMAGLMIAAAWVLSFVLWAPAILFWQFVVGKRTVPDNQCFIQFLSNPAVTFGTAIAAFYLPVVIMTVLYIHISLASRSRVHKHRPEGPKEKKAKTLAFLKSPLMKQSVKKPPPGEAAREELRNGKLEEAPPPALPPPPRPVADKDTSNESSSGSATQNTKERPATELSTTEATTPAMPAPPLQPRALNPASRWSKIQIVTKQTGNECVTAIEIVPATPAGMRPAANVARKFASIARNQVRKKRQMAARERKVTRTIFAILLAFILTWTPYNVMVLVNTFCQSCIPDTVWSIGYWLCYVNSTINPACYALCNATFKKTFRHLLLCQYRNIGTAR
Cytochrome P450 2D6, sequence (P10635 whole entry, the tested form may be a part): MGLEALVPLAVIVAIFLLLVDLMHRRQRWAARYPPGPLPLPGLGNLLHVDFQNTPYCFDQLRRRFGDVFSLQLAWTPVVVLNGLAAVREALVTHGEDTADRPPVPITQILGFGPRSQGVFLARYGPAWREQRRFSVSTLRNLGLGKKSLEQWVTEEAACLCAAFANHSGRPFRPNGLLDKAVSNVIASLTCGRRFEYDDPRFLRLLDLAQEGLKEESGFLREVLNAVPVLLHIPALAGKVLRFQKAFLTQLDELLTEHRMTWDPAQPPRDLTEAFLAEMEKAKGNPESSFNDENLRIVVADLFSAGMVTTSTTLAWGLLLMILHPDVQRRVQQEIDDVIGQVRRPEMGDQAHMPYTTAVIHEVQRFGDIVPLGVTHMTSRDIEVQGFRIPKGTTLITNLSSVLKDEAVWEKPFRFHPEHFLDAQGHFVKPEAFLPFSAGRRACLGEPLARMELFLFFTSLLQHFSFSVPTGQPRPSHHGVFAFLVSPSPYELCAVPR
Muscarinic acetylcholine receptor M5 (Homo sapiens), sequence (P08912 whole entry, the tested form may be a part): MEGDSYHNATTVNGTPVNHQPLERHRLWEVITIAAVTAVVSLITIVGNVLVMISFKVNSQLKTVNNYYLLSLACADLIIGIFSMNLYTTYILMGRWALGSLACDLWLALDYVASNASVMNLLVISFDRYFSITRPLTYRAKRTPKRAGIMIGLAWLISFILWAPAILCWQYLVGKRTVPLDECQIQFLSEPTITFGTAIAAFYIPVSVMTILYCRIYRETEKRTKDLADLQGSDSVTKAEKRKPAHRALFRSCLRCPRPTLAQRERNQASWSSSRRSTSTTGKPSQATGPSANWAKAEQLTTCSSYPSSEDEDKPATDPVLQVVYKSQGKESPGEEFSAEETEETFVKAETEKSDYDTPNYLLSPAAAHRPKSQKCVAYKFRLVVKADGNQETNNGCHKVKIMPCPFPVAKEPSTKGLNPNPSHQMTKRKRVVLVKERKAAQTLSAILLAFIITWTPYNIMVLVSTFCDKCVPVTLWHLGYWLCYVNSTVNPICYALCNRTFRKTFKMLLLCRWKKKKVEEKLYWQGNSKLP
Muscarinic acetylcholine receptor M1 (Homo sapiens), sequence (P11229 whole entry, the tested form may be a part): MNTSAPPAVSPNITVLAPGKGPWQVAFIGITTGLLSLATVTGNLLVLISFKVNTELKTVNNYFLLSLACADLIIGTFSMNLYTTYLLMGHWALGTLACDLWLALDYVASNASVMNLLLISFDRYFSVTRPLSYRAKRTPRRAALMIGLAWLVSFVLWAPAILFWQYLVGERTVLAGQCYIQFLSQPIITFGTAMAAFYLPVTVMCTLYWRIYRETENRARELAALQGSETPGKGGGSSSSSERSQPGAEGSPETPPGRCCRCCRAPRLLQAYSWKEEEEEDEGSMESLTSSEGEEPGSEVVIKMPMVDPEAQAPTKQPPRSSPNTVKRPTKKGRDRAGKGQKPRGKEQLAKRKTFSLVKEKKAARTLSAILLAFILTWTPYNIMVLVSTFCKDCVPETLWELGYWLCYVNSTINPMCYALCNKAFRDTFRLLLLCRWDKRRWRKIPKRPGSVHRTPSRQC
Muscarinic acetylcholine receptor M3 (Homo sapiens), sequence (P20309 whole entry, looked up, the tested form may be a part): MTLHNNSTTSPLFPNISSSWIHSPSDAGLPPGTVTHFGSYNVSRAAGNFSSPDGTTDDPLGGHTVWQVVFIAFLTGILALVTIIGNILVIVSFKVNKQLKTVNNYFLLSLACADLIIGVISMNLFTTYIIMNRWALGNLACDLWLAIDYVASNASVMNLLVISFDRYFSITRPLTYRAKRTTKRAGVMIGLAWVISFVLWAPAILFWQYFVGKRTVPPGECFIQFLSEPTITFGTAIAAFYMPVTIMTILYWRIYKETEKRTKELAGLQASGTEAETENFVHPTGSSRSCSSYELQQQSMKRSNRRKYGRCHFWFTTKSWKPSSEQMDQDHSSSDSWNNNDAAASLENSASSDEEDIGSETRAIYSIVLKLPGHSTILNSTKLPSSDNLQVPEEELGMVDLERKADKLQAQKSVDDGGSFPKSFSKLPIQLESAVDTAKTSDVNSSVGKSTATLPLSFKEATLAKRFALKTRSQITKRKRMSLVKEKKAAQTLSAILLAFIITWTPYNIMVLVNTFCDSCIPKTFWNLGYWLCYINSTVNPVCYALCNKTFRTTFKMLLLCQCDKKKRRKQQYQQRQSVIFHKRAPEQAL

`c1cn(-c2cc(NC3=NC[C@@]4(CN5CCC4CC5)O3)ncn2)cn1` showed a remaining at 10 min, 3 µM [1] of 100%, an AUC at 5 min [2] of 3 µM·h and a Vd [3] of 5.5 L/kg. The fraction unbound at 4 h, 10 µM [4] was 0.84, the AUC [5] was 3.2 µM·h and the IC50 (Cytochrome P450 3A4 [6]) was > 30 µM. For the same molecule, the %max [7] was 24%, the minimal effective dose (Mus musculus [8]) was 0.1 mg/kg and the Vd [9] was 2.9 L/kg. For the same molecule, the IC50 (Cytochrome P450 3A4 [10]) was > 30 µM, the Cmax [11] was 3200 nM and the bioavailability [12] was 100%. For the same molecule, the Activity [13] was “inactive”, the Vd [14] was 7 L/kg and the Activity [15] was “inactive”. For the same molecule, the half-life [16] was 1.1 h, the IC50 (Cytochrome P450 2B6) was > 30 µM and the IC50 (Cytochrome P450 2C8) was > 30 µM. For the same molecule, the concentration at 0.5 h [17] was 52 nM, the clearance [18] was 70 mL/min/kg and the EC50 [19] was > 100 µM. The %max [20] was 78%, the Activity [21] was “inactive” and the AUC at 5 min [22] was 0.75 µM·h. The bioavailability [23] was 97%, the Cmax [24] was 1600 nM and the clearance [25] was 96 mL/min/kg. The IC50 (Cytochrome P450 2D6) was > 30 µM, the half-life [26] was 0.7 h and the fraction unbound at 4 h, 10 µM [27] was 0.87. For the same molecule, the fraction unbound at 4 h, 10 µM [28] was 0.87, the remaining at 10 min, 3 µM [29] was 98% and the fraction unbound at 0.5 h [30] was 0.84. The remaining at 10 min, 3 µM [31] was 93%, the fraction unbound at 4 h, 10 µM [32] was 0.93 and the fraction unbound at 4 h, 10 µM [33] was 0.87. The clearance [34] was 15 mL/min/kg, the EC50 [35] was > 100 µM and the EC50 [36] was 0.023 µM. The half-life [37] was 5.5 h, the Cmax [38] was 1300 nM and the EC50 [39] was 0.1 µM. The Kp at 0.5 h [40] was 0.21, the EC50 [41] was 0.3 µM and the Vd [42] was 5.7 L/kg. For the same molecule, the AUC [43] was 19 µM·h, the EC50 [44] was > 100 µM and the Cmax [45] was 550 nM. The Activity [46] was “inactive”, the AUC at 5 min [47] was 3.4 µM·h and the remaining at 10 min, 3 µM [48] was 91%. The bioavailability [49] was 70%, the remaining at 10 min, 3 µM [50] was 95% and the Activity (Mus musculus [51]) was “Active”. The clearance [52] was 17 mL/min/kg, the AUC [53] was 7.2 µM·h and the AUC at 5 min [54] was 0.53 µM·h. It also gave a half-life [55] of 4.4 h, a bioavailability [56] of 45% and an AUC [57] of 11 µM·h.
